The source made the active and inactive calls.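 The calls were made as follows: active = compounds giving half or more protection of infected cells from virus-caused growth loss, again on retest; inactive = the rest.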
Tested on: CEM cells HIV-1 protection, formazan growth assay
Test: NCI AIDS Antiviral Assay
Details: for IC50: measured here: growth of uninfected CEM cells
How it was run: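 Screen of anti-HIV-1 activity in human CEM cells using a formazan-based growth measurement at five drug concentrations. Hits with 50% or greater protection were repeated, and confirmation required reproducible complete protection.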

CC(C)CCS(=O)(=O)O
EC50: > 200 µM
IC50: > 200 µM

CCOC(=O)C1=C(O)CSC1=Nc1ccc(N=C2SCC(O)=C2C(=O)OCC)cc1
outcome: inactive

COc1cc2c(cc1OC)C(Cc1ccc(Oc3cc(CC4c5cc(OC)c(OC)cc5CCN4C)ccc3O)cc1)N(C)CC2 (stereo unspecified)
outcome: inactive

N#CC(C#N)=c1ccc(=C(C#N)C#N)c2nsnc12
EC50: > 38 µM
IC50: > 38 µM

O=C(O)C1CSC2c3ccccc3C(=O)N12 (stereo unspecified)
EC50: > 200 µM
IC50: > 200 µM

COc1ccc2c(c1)CC[C@@H]1[C@@H]2CC[C@]2(C)C(=O)/C(=N/O)C[C@@H]12
EC50: > 200 µM
IC50: 8.51 µM

Cc1cc(-c2ccco2)oc(=O)c1NC(=O)c1ccccc1
EC50: > 200 µM
IC50: 25.1 µM

CCN1C(=O)N(C)C(O)c2c1nc1ccccn1c2=O (stereo unspecified)
EC50: > 182 µM
IC50: 11.5 µM

Cc1cccc2c(N)c3cccc(C(=O)NCCN(C)C)c3nc12
EC50: > 200 µM
IC50: 0.0631 µM

CC[n+]1[b-](C(C)(C)C)n(/N=C/C(C)(C)C)[b-](C(C)(C)C)[n+]1CC
EC50: > 200 µM
IC50: > 200 µM

O=C1/C(=C/c2ccc(Cl)c(Cl)c2)CN(C(=O)CCN2CCOCC2)C/C1=C\c1ccc(Cl)c(Cl)c1
EC50: > 22.9 µM
IC50: 0.12 µM

N#CCCN(CCC#N)c1ccc(/C=C2\N=C(c3ccccc3)N(NC(=O)c3ccncc3)C2=O)cc1
EC50: > 200 µM
IC50: 191 µM

CC1=CO[C@@H]2O[C@@]3(C)CC[C@H]4[C@H](C)CC[C@@H]1[C@@]24OO3
EC50: > 200 µM
IC50: 178 µM

COc1ccc(/C=C/c2cnc3ccccc3n2)cc1OC
EC50: > 200 µM
IC50: 155 µM

CCN=C1NN=C(c2ccccc2)c2cc(Cl)ccc2N1
EC50: > 120 µM
IC50: 21.9 µM

NC(CCCNCc1ccccc1)C(=O)O (stereo unspecified)
EC50: > 562 µM
IC50: > 562 µM

Oc1c2c(c(O)c3ccccc13)C1(N=N2)c2ccccc2Oc2ccccc21
outcome: inactive

CCCCCCCCCc1cc(=O)c2ccc(O)cc2o1
EC50: > 1.91 µM
IC50: > 1.91 µM

O=S(c1ccccc1)c1ccccc1
EC50: > 447 µM
IC50: 389 µM

O=C(O)c1nc(-c2ccccc2)ncc1-c1nnnn1-c1ccccc1
EC50: > 200 µM
IC50: > 200 µM

Cc1ccc2ccc3ccc(C)nc3c2n1.Cc1ccc2ccc3ccc(C)nc3c2n1.O=C1OC(C(O)C[O-])C(O)=C1O.[Cu+]
EC50: > 12.6 µM
IC50: 0.0871 µM

Cc1cc(N(CCC#N)CCC#N)ccc1/C=C1N=C(/C=C/c2ccccc2)OC(=O)N\1
EC50: > 3.39 µM
IC50: > 3.39 µM

COc1cc(C=O)c(-c2c(C=O)ccc3c2OCO3)c(OC)c1OC
EC50: > 135 µM
IC50: 20 µM

Cc1ccc(Nc2nc(NNC(=O)Cc3ccccc3)nc(NNC(=O)c3ccncc3)n2)cc1
EC50: > 50.1 µM
IC50: > 50.1 µM

C=C(C)CC1(O)C(=O)C(OCC)=C1OCC (stereo unspecified)
EC50: > 200 µM
IC50: > 200 µM

CCN1CCC(O)(/C=C/c2ccc(C(C)C)cc2)C(C(=O)/C=C/c2ccc(C(C)C)cc2)C1 (stereo unspecified)
EC50: > 200 µM
IC50: 1.78 µM

CC(C)(C)OC(=O)N/N=C(/N)Cc1ccccc1
EC50: > 200 µM
IC50: > 200 µM

CC[C@@]1(OP(=O)(O)O)C(=O)OCc2c1cc1n(c2=O)Cc2cc3ccccc3nc2-1
EC50: > 10 µM
IC50: 0.0263 µM

CCOc1ccc(/C=C(\Cl)c2ccc(OC)cc2)cc1
EC50: > 200 µM
IC50: > 200 µM

CC1(C)CNC[C@@](C)(O)C(=O)NC(C)(C)CNC[C@](C)(O)C(=O)N1
EC50: 186 µM
IC50: > 200 µM

C#CCN(C(=O)C(F)(F)F)c1ccc(C(=O)c2ccc(N(CC#C)C(=O)C(F)(F)F)cc2)cc1
EC50: > 28.2 µM
IC50: > 28.2 µM

CN(NC(=O)c1ccco1)C1=NCCCCN1
EC50: > 200 µM
IC50: > 200 µM

Cn1cc(NC(=O)Nc2cc(C(=O)Nc3cc(C(=O)Nc4cc(C(=O)Nc5ccc(P(=O)(O)O)c6cc(P(=O)(O)O)ccc56)n(C)c4)n(C)c3)n(C)c2)cc1C(=O)Nc1cc(C(=O)Nc2cc(C(=O)Nc3ccc(P(=O)(O)O)c4cc(P(=O)(O)O)ccc34)n(C)c2)n(C)c1
EC50: 1.29 µM
IC50: 37.2 µM

CN(C)CCNC(=O)c1cnn(C)c1[N+](=O)[O-]
EC50: > 200 µM
IC50: > 200 µM

COc1ccc2c(c1)[n+](=O)c(C(=O)C/C(=N/NC(=O)c1ccccc1O)C(=O)Nc1ccc(Cl)c(C(F)(F)F)c1)c(C)n2[O-]
EC50: > 1.2 µM
IC50: > 1.2 µM

O=C1CCCCC1CN1CCOCC1 (stereo unspecified)
outcome: inactive

COc1ccc(C=C2C(=O)NC(=O)NC2=O)cc1OCc1ccccc1
EC50: > 200 µM
IC50: 24.5 µM

COC(=O)C12C3C4(C(=O)OC)C1C1(C(=O)OC)C2C3(C(=O)OC)C41C(=O)N(C(C)C)C(C)C (stereo unspecified)
EC50: > 200 µM
IC50: > 200 µM

c1ccc([P+](c2ccccc2)(c2ccccc2)c2ccc([P+](c3ccccc3)(c3ccccc3)c3ccccc3)c3ccccc23)cc1
EC50: > 200 µM
IC50: 110 µM

O=[N+]([O-])c1cc(S(=O)(=O)c2ccc(S)c([N+](=O)[O-])c2)ccc1S
outcome: inactive

C=C(C)C1Cc2c(cc(O)c3c(=O)c4c(oc23)C(O)Oc2cc(OC)c(OC)cc2-4)O1 (stereo unspecified)
EC50: > 200 µM
IC50: 72.4 µM

N#CC1(c2ccccc2)CCNCC1
EC50: > 1120 µM
IC50: 562 µM

C[C@]12CCCO[C@@H]1CC[C@@H]1[C@@H]2CC[C@]2(C)[C@@H](O)CC[C@@H]12
EC50: > 200 µM
IC50: > 200 µM

CC(=O)/C(=C/c1ccccc1Cl)C(=O)c1ccccc1
EC50: > 91.2 µM
IC50: 19.1 µM

O=C1CSC(c2c[nH]c3ccccc23)N1c1ccc(Cl)cc1 (stereo unspecified)
EC50: > 110 µM
IC50: > 110 µM

CCOC(=O)CSCn1ncc2ccc([N+](=O)[O-])cc21
outcome: inactive

Cn1ncc2[nH]cnc2c1=S
EC50: > 200 µM
IC50: 26.9 µM

CCOC(=O)Cc1ccc(Nc2nc3ccccc3nc2C(=O)OCC)cc1
EC50: 91.2 µM
IC50: > 200 µM

CN(C)CCCNc1c2ccccc2nc2cccc([N+](=O)[O-])c12
EC50: > 0.2 µM
IC50: 0.000407 µM

O=C(NC(=O)c1ccccc1)Nc1ccccc1
EC50: > 14.1 µM
IC50: > 14.1 µM

O=Cc1ccc2c(c1I)OCO2
EC50: > 67.6 µM
IC50: 38.9 µM

NCCS/C=C/C(=O)OCc1ccc(Br)cc1
EC50: > 708 µM
IC50: 97.7 µM

Nc1ccc(S(N)(=O)=O)cc1SSc1cc(S(N)(=O)=O)ccc1N
EC50: 55 µM
IC50: 132 µM

O=c1[nH]c2ccccc2nc1/C=C(\O)C(F)F
EC50: > 200 µM
IC50: > 200 µM

N/N=c1/nc2n(c3ncccc13)C=CNN2
EC50: > 24.5 µM
IC50: > 24.5 µM

C[n+]1c(-c2ccc(/C=N/NC(=O)c3ccc(C(=O)N/N=C/c4ccc(-c5cn6ccccc6[n+]5C)cc4)c(O)c3O)cc2)cn2ccccc21
EC50: 8.32 µM
IC50: 8.71 µM

COc1c(OC)c(OC)c2c(=O)c(OC)c(-c3ccc4c(c3)OCO4)oc2c1OC
EC50: > 200 µM
IC50: > 200 µM

O=C(CCC(=O)Nc1cccc(Cl)c1)CC(=O)c1ccc(F)cc1
outcome: inactive

CC(C)C(Sc1nc(-c2ccccc2)c(-c2ccccc2)[nH]1)C(=O)N/N=C/c1ccc([N+](=O)[O-])cc1 (stereo unspecified)
EC50: > 14.5 µM
IC50: > 14.5 µM

CSc1c(C(=O)Nc2ccc(Cl)cc2)c(N)[nH]c(=O)c1C#N
EC50: > 200 µM
IC50: 1.2 µM

Clc1ccc(C=NC23CC4CC(CC(C4)C2)C3)c(Cl)c1
outcome: inactive

CC(=O)O[C@H]1[C@@H]2[C@@H]3[C@@H](C[C@H]1C)[C@@H](C)CO[C@@]1(C)CC/C=C(/C)C[C@@H]2O[C@@H]31
EC50: > 100 µM
IC50: > 100 µM

CC(C)c1c(P(=O)(c2ccccc2)c2ccccc2)n(C)c2ccccc12
EC50: > 100 µM
IC50: 41.7 µM

CC(=O)C(=[N+]=[N-])C(=O)N(C)CCC#N
EC50: > 200 µM
IC50: > 200 µM

CC(C)C(/C=C/c1ccccc1)=N\NC(=S)NN
EC50: > 200 µM
IC50: 102 µM

O=C1c2[nH]c3ccc(Br)cc3c2CCN1Cc1ccc(Cl)cc1
EC50: > 200 µM
IC50: 11.2 µM

COc1cc2c(cc1OC)C(=O)/C(=C/c1ccc([N+](=O)[O-])cc1)CC2
EC50: 155 µM
IC50: > 200 µM

N#CC(C#N)=Cn1ccc(=O)[nH]c1=S
EC50: > 200 µM
IC50: > 200 µM

CCOC(=O)c1nc2ccccc2nc1NCc1cc(OC)c(OC)c(OC)c1
EC50: > 200 µM
IC50: 27.5 µM

O=C1CC(=O)N(c2ccccc2)N1/C(=C/c1ccccc1)c1ccccc1
EC50: > 200 µM
IC50: 9.33 µM

Nc1ccn(C2OC(CO)CC2F)c(=O)n1 (stereo unspecified)
EC50: 0.132 µM
IC50: 7.08 µM

CCCN(CCC)C(=O)c1c([N+](=O)[O-])cc(C(F)(F)F)cc1[N+](=O)[O-]
outcome: inactive

Cc1[nH]c2ccccc2c1-c1n[nH]c(=O)c2ccccc12
outcome: inactive

Cc1ccc(S(=O)(=O)c2c3[nH]c4ccccc4nc3n3c2nc2ccccc23)cc1
EC50: > 120 µM
IC50: > 120 µM

O=C(CCCN1CCC(O)(c2cccc(C(F)(F)F)c2)CC1)c1ccc(F)cc1
EC50: > 302 µM
IC50: 53.7 µM

O=C1OCC2C(=O)OCC12 (stereo unspecified)
EC50: > 200 µM
IC50: > 200 µM

C=C(C)C12CC3CC(/C(=N/O)C(C1)/C3=N\O)[C@@]2(C)O (stereo partly specified)
EC50: > 355 µM
IC50: > 355 µM

N#CCCn1c(CCC(=O)Nc2ccc(Cl)cc2Cl)n[nH]c1=S
EC50: 66.1 µM
IC50: 97.7 µM

CCOC(=O)c1c(SC(=O)c2ccc(Cl)cc2)n(-c2ccccc2)c(=S)n(-c2ccccc2)c1=O
EC50: > 200 µM
IC50: 141 µM

CCOC(=O)C12CCC(=O)C=C1[C@@H](C)C(=O)CC2 (stereo partly specified)
EC50: > 1000 µM
IC50: 363 µM

CC(=O)c1cccc(C)c1C(=O)O
outcome: inactive

COc1cc([N+](=O)[O-])ccc1N1C(=O)C2c3[nH]c4ccccc4c3C3CCC(C(C)(C)C)CC3C2C1=O (stereo unspecified)
EC50: > 200 µM
IC50: 138 µM

O=C(/C=C/c1ccccc1)Oc1cccc(O)c1
EC50: > 200 µM
IC50: 5.01 µM

C/C(=N/NC(=S)N1CCCCCC1)c1ccccc1O
EC50: > 200 µM
IC50: 4.27 µM

CNS(=O)(=O)NN(C)S(=O)(=O)c1ccc2ccccc2c1
EC50: > 759 µM
IC50: 110 µM

CCn1cc(C(=O)O)c(=O)c2cccc(OC)c21
outcome: inactive

CC1=NN(C(=O)CC(=O)NC(=O)/C=C\c2ccccc2)C(=O)C1N=Nc1ccc([N+](=O)[O-])cc1 (stereo unspecified)
outcome: inactive

Reference: PubChem BioAssay AID179 (DTP/NCI, 2004)
